Experimental findings from patent US8193239B2, “Substituted 1-cyanoethylheterocyclylcarboxamide compounds” (AstraZeneca AB, priority 2009, dated 2012) are described below.

For this assay, the target named is Recombinant Human (rh) DPP1 (Homo sapiens, UniProt P53634). Description: Fluorescence Assay for Recombinant Human (rh) DPP1. Format: biochemical. The conditions noted are these: rhDPP1, substrate H-Gly-Arg-AMC, pH5.0, 22° C., pre-incubated 30-60 min; read-out: DPP1 activity, pIC50 (converted). How it is done: Fluorescence Assay for Recombinant Human (rh) DPP1
Sequence of Recombinant Human (rh) DPP1 (P53634 231-394 limits assumed): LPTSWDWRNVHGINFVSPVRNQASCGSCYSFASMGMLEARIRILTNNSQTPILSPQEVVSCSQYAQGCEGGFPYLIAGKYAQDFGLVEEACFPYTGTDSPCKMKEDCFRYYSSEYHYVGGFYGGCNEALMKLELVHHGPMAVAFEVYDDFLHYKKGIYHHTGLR
Sequence of Recombinant Human (rh) DPP1 (P53634 25-134 limits assumed): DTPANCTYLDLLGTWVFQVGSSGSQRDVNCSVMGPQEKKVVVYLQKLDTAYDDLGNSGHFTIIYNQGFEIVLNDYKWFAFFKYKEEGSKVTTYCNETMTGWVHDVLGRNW
Sequence of Recombinant Human (rh) DPP1 (P53634 395-463 limits assumed): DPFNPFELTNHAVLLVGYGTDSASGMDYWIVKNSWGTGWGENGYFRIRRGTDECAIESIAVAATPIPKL
The activity of DPP1 was determined by measuring the enzymatic release of aminomethyl coumarin (AMC) from the peptide substrate (H-Gly-Arg-AMC), which leads to an increase in fluorescence intensity at λex=350 nm and λem=450 nm. The assay was carried out in black 384 well plates in a final volume of 50 μl at 22° C. The assay conditions contained the following: 25 mM piperazine buffer pH5.0; 50 mM NaCl, 5 mM DTT; 0.01% (v/v) Triton X-100; 100 μM H-Gly-Arg-AMC and rhDPP1 ([…]). […] A standard DPP1 inhibitor (vinyl sulfone, see below, or Example 24 from WO2009/074829) was used as a positive control in the assay. Routinely, inhibitors were pre-incubated with rhDPP1 for 30-60 min prior to the addition of the peptide substrate to start the reaction for a further 60 min at 22° C. After that the plates were immediately read in a fluorescence plate reader using the above emission and excitation wavelengths [modified from Kam, C M, Gotz, M G, Koot, G, McGuire, M J, Thiele, D L, Hudig, D & Powers, J C (2004). Arch Biochem Biophys, 427, 123-134 & McGuire, M J, Lipsky, P E & Thiele, D L (1992). Arch Biochem Biophys, 295, 280-288].

Structures are written as SMILES. Structures can show the parent of a compound that is named as a salt.

Consider `CN1Cc2cc(-c3ccc(C[C@@H](C#N)NC(=O)C4(N)CCOCC4)cc3)ccc2S1(=O)=O` [Example 16, (S)-4-Amino-N-{cyano-2-[4-(2-methyl-1,1-dioxido-2,3-dihydro-1,2-benzisothiazol-5-yl)phenyl]ethyl}tetrahydro-2H-pyran-4-carboxamide trifluoroacetic acid salt], for which the IC50 was 1 nM.
Take `N#C[C@H](Cc1ccc(-c2ccc(F)cc2)cc1)NC(=O)C1(N)CCOCC1` [Example 4, (S)-4-Amino-N-(1-cyano-2-(4′-fluorobiphenyl-4-yl)ethyl)tetrahydro-2H-pyran-4-carboxamide]: the IC50 is 0.398 nM.
Regarding `CN1C(=O)CSc2cc(-c3ccc(C[C@@H](C#N)NC(=O)C4(N)CCOCC4)cc3)ccc21` [Example 28, (S)-4-Amino-N-(1-cyano-2-(4-(4-methyl-3-oxo-3,4-dihydro-2H-benzo[b][1,4]thiazin-7-yl)phenyl)ethyl)tetrahydro-2H-pyran-4-carboxamide], the IC50 was 0.398 nM.
The value for `N#C[C@H](Cc1ccc(-c2ccc(F)c(F)c2)cc1)NC(=O)C1(N)CCOCC1` [Example 13, (S)-4-Amino-N-(1-cyano-2-(3′,4′-difluorobiphenyl-4-yl)ethyl)tetrahydro-2H-pyran-4-carboxamide trifluoroacetic acid salt] was 0.316 nM.
